Measured values as given in US20210221866A1, “PROTEASE-RESISTANT LIPIDATED GLP-1 ANALOGS” (MEDIMMUNE LIMITED, priority 2015, published 2021).
Like-named read-outs stand apart in the source and are kept apart here. Values belong to the compound of their own block, whether it stands above or below them. Numbered stars: 1 amine (or outer) side, 2 acyl side, 3 side chain; on linkers, the order of the positions; unused ones are H or OH. Square brackets hold non-standard residues; d marks the D form. Side chains are listed from the residue outwards. Peptide text beside a SMILES is read from it. * marks the point of attachment. C16 diacid = O=C(O)CCCCCCCCCCCCCCC(=O)*; γGlu = O=C(O)[C@H](CCC(=O)[*:2])N[*:1]; αMeF = C[C@](N)(Cc1ccccc1)C(=O)O; αMeK = C[C@](N)(CCCCN)C(=O)O; Lauroyl = CCCCCCCCCCCC(=O)*; αMeS = C[C@](N)(CO)C(=O)O; AEEA = NCCOCCOCC(=O)O; Aib = CC(C)(N)C(=O)O

Columns and labels:
Format in all cases: cell-based
[1] = target: T1, GLP-1R (INS1e cells) (Rattus norvegicus, UniProt P32301); test: INS1e assay, cAMP activity at GLP-1R
T1 construct: endogenous in cells; host or cells: INS1e cells
T1 sequence (P32301 22-463): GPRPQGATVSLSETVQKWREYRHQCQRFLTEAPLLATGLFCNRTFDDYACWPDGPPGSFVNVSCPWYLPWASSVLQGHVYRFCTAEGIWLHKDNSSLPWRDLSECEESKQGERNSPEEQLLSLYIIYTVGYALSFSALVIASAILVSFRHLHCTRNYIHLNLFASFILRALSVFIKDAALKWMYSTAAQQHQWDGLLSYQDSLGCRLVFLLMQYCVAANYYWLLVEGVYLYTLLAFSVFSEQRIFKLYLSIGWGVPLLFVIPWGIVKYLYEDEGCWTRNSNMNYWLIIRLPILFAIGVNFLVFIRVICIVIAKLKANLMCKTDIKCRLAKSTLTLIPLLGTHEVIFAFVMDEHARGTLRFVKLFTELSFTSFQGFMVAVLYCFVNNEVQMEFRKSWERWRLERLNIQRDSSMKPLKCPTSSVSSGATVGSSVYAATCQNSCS

[2] = target: T2, human glucose-dependent insulinotropic peptide receptor (GIPR) (Homo sapiens, UniProt P48546); test: cAMP assay, human GIPR cells
T2 construct: expressed in transfected cells; host or cells: HEK293 cells or CHO cells
T2 sequence (P48546 22-466): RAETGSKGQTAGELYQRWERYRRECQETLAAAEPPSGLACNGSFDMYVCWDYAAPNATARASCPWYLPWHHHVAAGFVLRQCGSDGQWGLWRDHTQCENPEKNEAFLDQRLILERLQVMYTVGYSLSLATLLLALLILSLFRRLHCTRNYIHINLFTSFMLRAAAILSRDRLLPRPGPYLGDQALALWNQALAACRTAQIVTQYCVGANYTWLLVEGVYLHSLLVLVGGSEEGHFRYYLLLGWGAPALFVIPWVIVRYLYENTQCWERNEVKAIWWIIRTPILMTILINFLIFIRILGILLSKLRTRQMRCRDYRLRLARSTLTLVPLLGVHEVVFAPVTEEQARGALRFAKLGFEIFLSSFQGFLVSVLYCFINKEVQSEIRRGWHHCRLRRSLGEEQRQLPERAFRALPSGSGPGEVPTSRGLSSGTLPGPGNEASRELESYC
Summary of the method: (§1)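 Peptide-stimulated cAMP measured by two-step HTRF after a 30 min room-temperature incubation with receptor-expressing cells (hGLP-1R, hGIPR at 1×10^5 cells/ml; hGCGR at 2×10^5 cells/ml). Duplicate dilutions; EC50 from 4-parameter logistic fit of % Delta F.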

[3] = target: T3, human glucagon receptor (GCGR) (Homo sapiens, UniProt P47871); test: cAMP assay, human GCGR cells
T3 construct: expressed in transfected cells; host or cells: HEK293 cells or CHO cells
T3 sequence (P47871 26-477): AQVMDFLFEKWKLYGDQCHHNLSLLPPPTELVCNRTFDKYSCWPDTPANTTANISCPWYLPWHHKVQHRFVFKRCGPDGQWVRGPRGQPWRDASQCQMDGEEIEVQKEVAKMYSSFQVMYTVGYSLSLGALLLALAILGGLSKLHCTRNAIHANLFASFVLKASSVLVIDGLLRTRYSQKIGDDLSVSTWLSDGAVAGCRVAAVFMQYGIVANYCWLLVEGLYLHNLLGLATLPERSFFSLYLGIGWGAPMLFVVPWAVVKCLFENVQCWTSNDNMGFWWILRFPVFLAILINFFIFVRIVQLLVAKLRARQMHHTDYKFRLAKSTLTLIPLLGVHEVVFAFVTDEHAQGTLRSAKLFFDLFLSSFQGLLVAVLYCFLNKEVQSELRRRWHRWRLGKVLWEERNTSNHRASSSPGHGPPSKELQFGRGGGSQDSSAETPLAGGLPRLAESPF
Summary of the method: as §1

[4] = target: T4, human GLP-1 receptor (GLP-1R) (Homo sapiens, UniProt P43220); test: cAMP assay, human GLP-1R cells
T4 construct: expressed in transfected cells; host or cells: HEK293 cells or CHO cells
T4 sequence (P43220 24-463): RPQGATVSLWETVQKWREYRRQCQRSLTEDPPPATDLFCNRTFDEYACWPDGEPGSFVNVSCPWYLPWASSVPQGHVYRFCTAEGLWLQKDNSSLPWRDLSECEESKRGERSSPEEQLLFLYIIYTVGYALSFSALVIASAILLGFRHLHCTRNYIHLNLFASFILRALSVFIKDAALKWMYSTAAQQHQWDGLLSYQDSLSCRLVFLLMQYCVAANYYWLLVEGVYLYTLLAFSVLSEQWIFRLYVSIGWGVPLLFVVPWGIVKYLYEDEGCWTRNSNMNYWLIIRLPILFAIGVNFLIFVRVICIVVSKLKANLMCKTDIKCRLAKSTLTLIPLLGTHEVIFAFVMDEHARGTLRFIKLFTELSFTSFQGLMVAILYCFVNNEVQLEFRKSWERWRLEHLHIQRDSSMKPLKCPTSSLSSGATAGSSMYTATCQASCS
Summary of the method: as §1

[5] = Table 8, substituted and mono-lipidated peptides, mean of n1 and n2, read-out: INS1e assay EC50 Mean pM GLP-1R

Structure (SMILES): CCCCCCCCCCCCCCCCCC(=O)NCCOCCOCC(=O)NCCOCCOCC(=O)NCCOCCOCC(=O)NCCCC[C@H](NC(=O)[C@H](C)NC(=O)[C@H](C)NC(=O)[C@H](CCC(=O)O)NC(=O)CNC(=O)[C@H](CCC(=O)O)NC(=O)[C@H](CC(C)C)NC(=O)[C@](C)(Cc1ccccc1)NC(=O)[C@H](CO)NC(=O)[C@H](CO)NC(=O)[C@@H](NC(=O)[C@H](CC(=O)O)NC(=O)[C@H](CO)NC(=O)[C@@H](NC(=O)[C@](C)(Cc1ccccc1)NC(=O)[C@H](CO)NC(=O)CNC(=O)[C@H](CCC(=O)O)NC(=O)C(C)(C)NC(=O)[C@@H](N)Cc1c[nH]cn1)[C@@H](C)O)C(C)C)C(=O)N[C@@H](CCC(=O)O)C(=O)N[C@@](C)(Cc1ccccc1)C(=O)N[C@H](C(=O)N[C@@H](C)C(=O)N[C@@](C)(Cc1ccccc1)C(=O)N[C@H](C(=O)N[C@H](C(=O)N[C@@](C)(CCCCN)C(=O)NCC(=O)NCC(N)=O)C(C)C)C(C)C)[C@@H](C)CC [compound 52]
EC50 [1, 5]: 20 pM

Structure (SMILES): CCCCCCCCCCCCCCCC(=O)N[C@@H](CCC(=O)NCCCC[C@H](NC(=O)[C@H](CCC(=O)O)NC(=O)[C@](C)(CCCCN)NC(=O)[C@H](C)NC(=O)[C@H](C)NC(=O)[C@H](CCC(=O)O)NC(=O)CNC(=O)[C@H](CCC(=O)O)NC(=O)[C@H](CC(C)C)NC(=O)[C@](C)(Cc1ccccc1)NC(=O)[C@H](CO)NC(=O)[C@](C)(CO)NC(=O)[C@@H](NC(=O)[C@H](CC(=O)O)NC(=O)[C@H](CO)NC(=O)[C@@H](NC(=O)[C@](C)(Cc1ccccc1)NC(=O)[C@H](CO)NC(=O)CNC(=O)[C@H](CCC(=O)O)NC(=O)C(C)(C)NC(=O)[C@@H](N)Cc1c[nH]cn1)[C@@H](C)O)C(C)C)C(=O)N[C@H](C(=O)N[C@@H](C)C(=O)N[C@@](C)(Cc1ccccc1)C(=O)N[C@H](C(=O)N[C@H](C(=O)N[C@@](C)(CCCCN)C(=O)NCC(=O)NCC(N)=O)C(C)C)C(C)C)[C@@H](C)CC)C(=O)O [compound 78]
EC50 [1, 5]: 346 pM
EC50 ([1]; Table 8, substituted and mono-lipidated peptides, replicate n2, read-out: INS1e assay EC50 GLP-1R n2): 346 pM

Structure (SMILES): CC[C@H](C)[C@H](NC(=O)[C@](C)(Cc1ccccc1)NC(=O)[C@H](CCC(=O)O)NC(=O)[C@](C)(CCCCN)NC(=O)[C@H](C)NC(=O)[C@H](C)NC(=O)[C@H](CCC(=O)O)NC(=O)CNC(=O)[C@H](CCC(=O)O)NC(=O)[C@H](CC(C)C)NC(=O)[C@](C)(Cc1ccccc1)NC(=O)[C@H](CO)NC(=O)[C@](C)(CO)NC(=O)[C@@H](NC(=O)[C@H](CC(=O)O)NC(=O)[C@H](CO)NC(=O)[C@@H](NC(=O)[C@](C)(Cc1ccccc1)NC(=O)[C@H](CO)NC(=O)CNC(=O)[C@H](CCC(=O)O)NC(=O)C(C)(C)NC(=O)[C@@H](N)Cc1c[nH]cn1)[C@@H](C)O)C(C)C)C(=O)N[C@@H](C)C(=O)N[C@@](C)(Cc1ccccc1)C(=O)N[C@H](C(=O)N[C@H](C(=O)N[C@@H](CCCCNC(=O)CCCCCNC(=O)CCCCCNC(=O)CCCCCNC(=O)CCCCCCCCCCCCCCCCC(=O)O)C(=O)NCC(=O)NCC(N)=O)C(C)C)C(C)C [compound 196]
EC50 ([2]; first replicate, read-out: Primary assay EC50 GIP-R): ≥ 26 nM
EC50 ([2]; second replicate (n2), read-out: Primary assay EC50 GIP-R): ≥ 26 nM
EC50 ([3]; second replicate (n2), read-out: Primary assay EC50 Gluc-R): ≥ 26 nM
EC50 ([4]; mean of n1 and n2, read-out: Mean pM GLP-1R): 125 pM
EC50 ([4]; replicate n1, read-out: Primary assay EC50 GLP-1R n1): 190 pM
EC50 ([4]; replicate n2, read-out: Primary assay EC50 GLP-1R n2): 63 pM

Structure (SMILES): CC[C@H](C)[C@H](NC(=O)[C@](C)(Cc1ccccc1)NC(=O)[C@H](CCC(=O)O)NC(=O)[C@H](CCCCNC(=O)CCCCCNC(=O)CCCCCCCCCCCCCCCCC(=O)O)NC(=O)[C@H](C)NC(=O)[C@H](C)NC(=O)[C@H](CCC(=O)O)NC(=O)CNC(=O)[C@H](CCC(=O)O)NC(=O)[C@H](CC(C)C)NC(=O)[C@](C)(Cc1ccccc1)NC(=O)[C@H](CO)NC(=O)[C@](C)(CO)NC(=O)[C@@H](NC(=O)[C@H](CC(=O)O)NC(=O)[C@H](CO)NC(=O)[C@@H](NC(=O)[C@](C)(Cc1ccccc1)NC(=O)[C@H](CO)NC(=O)CNC(=O)[C@H](CCC(=O)O)NC(=O)C(C)(C)NC(=O)[C@@H](N)Cc1c[nH]cn1)[C@@H](C)O)C(C)C)C(=O)N[C@@H](C)C(=O)N[C@@](C)(Cc1ccccc1)C(=O)N[C@H](C(=O)N[C@H](C(=O)N[C@@](C)(CCCCN)C(=O)NCC(=O)NCC(N)=O)C(C)C)C(C)C [compound 158]
EC50 ([2]; cAMP activity, first determination (n1), read-out: Primary assay EC50 GIP-R): ≥ 28 nM
EC50 ([2]; cAMP activity, second determination (n2), read-out: Primary assay EC50 GIP-R): ≥ 28 nM
EC50 ([3]; cAMP activity, second determination (n2), read-out: Primary assay EC50 Gluc-R): ≥ 28 nM
EC50 ([4]; cAMP activity, first determination (n1), read-out: Primary assay EC50 GLP-1R n1): 140 pM
EC50 ([4]; cAMP activity, mean of n1 and n2, read-out: Mean pM GLP-1R): 148 pM
EC50 ([4]; cAMP activity, second determination (n2), read-out: Primary assay EC50 GLP-1R n2): 160 pM

The remaining lines, values ahead:

EC50 ([2]; Table 9, bis-lipidated peptides, first replicate, read-out: Primary assay EC50 GIP-R (n1)): ≥ 21.7 nM
EC50 ([2]; Table 9, bis-lipidated peptides, second replicate, read-out: Primary assay EC50 GIP-R (n2)): ≥ 21.7 nM
EC50 ([3]; Table 9, bis-lipidated peptides, first replicate, read-out: Primary assay EC50 Gluc-R (n1)): ≥ 21.7 nM
EC50 ([3]; Table 9, bis-lipidated peptides, second replicate, read-out: Primary assay EC50 Gluc-R (n2)): ≥ 21.7 nM
EC50 ([4]; Table 9, bis-lipidated peptides, mean of n1 and n2, read-out: Primary assay EC50 Mean pM GLP-1R): 569 pM
EC50 ([4]; Table 9, bis-lipidated peptides, replicate n1, read-out: Primary assay EC50 GLP-1R n1): 628 pM
EC50 ([4]; Table 9, bis-lipidated peptides, replicate n2, read-out: Primary assay EC50 GLP-1R n2): 510 pM
Structure (SMILES): CC[C@H](C)[C@H](NC(=O)[C@H](Cc1ccccc1)NC(=O)[C@H](CCC(=O)O)NC(=O)[C@](C)(CCCCN)NC(=O)[C@H](C)NC(=O)[C@H](C)NC(=O)[C@H](CCC(=O)O)NC(=O)CNC(=O)[C@H](CCC(=O)O)NC(=O)[C@H](CC(C)C)NC(=O)[C@H](CCCCNC(=O)COCCOCCNC(=O)COCCOCCNC(=O)CC[C@H](NC(=O)CCCCCCCCCCCCCCC(=O)O)C(=O)O)NC(=O)[C@H](CO)NC(=O)[C@](C)(CO)NC(=O)[C@@H](NC(=O)[C@H](CC(=O)O)NC(=O)[C@H](CO)NC(=O)[C@@H](NC(=O)[C@](C)(Cc1ccccc1)NC(=O)[C@H](CO)NC(=O)CNC(=O)[C@H](CCC(=O)O)NC(=O)C(C)(C)NC(=O)[C@@H](N)Cc1c[nH]cn1)[C@@H](C)O)C(C)C)C(=O)N[C@@H](C)C(=O)N[C@@H](Cc1c[nH]c2ccccc12)C(=O)N[C@@H](CCCCNC(=O)COCCOCCNC(=O)COCCOCCNC(=O)CC[C@H](NC(=O)CCCCCCCCCCCCCCC(=O)O)C(=O)O)C(=O)N[C@H](C(=O)N[C@@H](CCC(=O)O)C(=O)NCC(=O)NCC(N)=O)C(C)C [compound 267] (H-H[Aib]EGS[αMeF]TSDV[αMeS]SK([AEEA-AEEA-γGlu-C16 diacid])LEGEAA[αMeK]EFIAWK([AEEA-AEEA-γGlu-C16 diacid])VEGG-NH2; N-terminus assumed)

EC50 ([1]; Table 12, tris-lipidated peptides, mean of n1 and n2, read-out: INS1e assay EC50 Mean pM GLP-1R): 3660 pM
Structure (SMILES): CCCCCCCCCCCC(=O)N[C@@H](CCC(=O)NCCOCCOCC(=O)NCCOCCOCC(=O)NCCCC[C@H](NC(=O)[C@H](C)NC(=O)[C@@H](NC(=O)[C@H](Cc1ccccc1)NC(=O)[C@H](CCCCNC(=O)COCCOCCNC(=O)COCCOCCNC(=O)CC[C@H](NC(=O)CCCCCCCCCCC)C(=O)O)NC(=O)[C@](C)(CCCCN)NC(=O)[C@H](C)NC(=O)[C@H](C)NC(=O)[C@H](CCC(=O)O)NC(=O)CNC(=O)[C@H](CCC(=O)O)NC(=O)[C@H](CCCCNC(=O)COCCOCCNC(=O)COCCOCCNC(=O)CC[C@H](NC(=O)CCCCCCCCCCC)C(=O)O)NC(=O)[C@H](Cc1ccc(O)cc1)NC(=O)[C@H](CO)NC(=O)[C@](C)(CO)NC(=O)[C@@H](NC(=O)[C@H](CC(=O)O)NC(=O)[C@H](CO)NC(=O)[C@@H](NC(=O)[C@](C)(Cc1ccccc1)NC(=O)[C@H](CO)NC(=O)CNC(=O)[C@H](CCC(=O)O)NC(=O)C(C)(C)NC(=O)[C@@H](N)Cc1c[nH]cn1)[C@@H](C)O)C(C)C)[C@@H](C)CC)C(=O)N[C@H](C(=O)N[C@H](C(=O)N[C@@H](CCC(=O)O)C(=O)NCC(=O)NCC(N)=O)C(C)C)C(C)C)C(=O)O [compound 470] (H-H[Aib]EGS[αMeF]TSDV[αMeS]SYK([AEEA-AEEA-γGlu-Lauroyl])EGEAA[αMeK]K([AEEA-AEEA-γGlu-Lauroyl])FIAK([AEEA-AEEA-γGlu-Lauroyl])VVEGG-NH2; N-terminus assumed)
